Assay results as given in patent US20240218017A1, “PEPTIDE AMPHIPHILES WITH MODIFIED DEGRADING SEQUENCES AND METHODS OF USE THEREOF” (UAB RESEARCH FOUNDATION, priority 2022, published 2024).
Peptide text beside a SMILES is read from it. * marks the point of attachment. Palmitoyl = CCCCCCCCCCCCCCCC(=O)*

Assay: Solubility in DI water at 1 wt % (visual observation, FIG. 5)
Assay type: physicochemical
Procedure: PA-C16-GTAGLKKK-YIGSR (SEQ ID NO: 19) and PA-C16-GTAKKKKK-YIGSR (SEQ ID NO:20) were dissolved in DI water at 1 wt %. […] Higher percent transmittance indicates less opaqueness of solution, which corresponds with increased solubility of the peptide amphiphiles in DI water. Thus, PA-C16-GTAGLKKK-YIGSR (SEQ ID NO: 19) and PA-C16-GTAKKKKK-YIGSR (SEQ ID NO:20) are more soluble than unmodified PA-C16-GTAGLIGQ-YIGSR (SEQ ID NO:21).

| solubility | SMILES |
| --- | --- |
| form homogenous, transparent solutions | CCCCCCCCCCCCCCCC(=O)NCC(=O)N[C@H](C(=O)N[C@@H](C)C(=O)NCC(=O)N[C@@H](CC(C)C)C(=O)N[C@@H](CCCCN)C(=O)N[C@@H](CCCCN)C(=O)N[C@@H](CCCCN)C(=O)N[C@@H](Cc1ccc(O)cc1)C(=O)N[C@H](C(=O)NCC(=O)N[C@@H](CO)C(=O)N[C@@H](CCCNC(=N)N)C(=O)O)[C@@H](C)CC)[C@@H](C)O [PA-C16-GTAGLKKK-YIGSR, PA-C16-GTAGLKKK-YIGSR (SEQ ID NO:19)] (Palmitoyl-GTAGLKKKYIGSR-OH; N-terminus and C-terminus assumed) |
| form homogenous, transparent solutions | CCCCCCCCCCCCCCCC(=O)NCC(=O)N[C@H](C(=O)N[C@@H](C)C(=O)N[C@@H](CCCCN)C(=O)N[C@@H](CCCCN)C(=O)N[C@@H](CCCCN)C(=O)N[C@@H](CCCCN)C(=O)N[C@@H](CCCCN)C(=O)N[C@@H](Cc1ccc(O)cc1)C(=O)N[C@H](C(=O)NCC(=O)N[C@@H](CO)C(=O)N[C@@H](CCCNC(=N)N)C(=O)O)[C@@H](C)CC)[C@@H](C)O [PA-C16-GTAKKKKK-YIGSR, PA-C16-GTAKKKKK-YIGSR (SEQ ID NO:20)] (Palmitoyl-GTAKKKKKYIGSR-OH; N-terminus and C-terminus assumed) |
| insoluble and forms precipitates | CCCCCCCCCCCCCCCC(=O)NCC(=O)N[C@H](C(=O)N[C@@H](C)C(=O)NCC(=O)N[C@@H](CC(C)C)C(=O)N[C@H](C(=O)NCC(=O)N[C@@H](CCC(N)=O)C(=O)N[C@@H](Cc1ccc(O)cc1)C(=O)N[C@H](C(=O)NCC(=O)N[C@@H](CO)C(=O)N[C@@H](CCCNC(=N)N)C(=O)O)[C@@H](C)CC)[C@@H](C)CC)[C@@H](C)O [PA-C16-GTAGLIGQ-YIGSR, PA-C16-GTAGLIGQ-YIGSR (SEQ ID NO:21), reference compound] (Palmitoyl-GTAGLIGQYIGSR-OH; N-terminus and C-terminus assumed) |
